Assay results taken from patent US11992495B2 (THE REGENTS OF THE UNIVERSITY OF CALIFORNIA, priority 2017, dated 2024).

Tested on: lymph node mononuclear cells (T cell proliferation in response to HEL)
Test: T cell recall responses to HEL, 3H-thymidine uptake (proliferation)
Type: cell-based, Mice
Details: alprazolam (Xanax) alone, any of the dosages tested
Experimental: Mice were injected with hen egg lysozyme (HEL, a prototypic foreign antigen) in 50% complete Freund's adjuvant (CFA) in their hind food-pad. […] During the last 16 h of a 96 h incubation period, […] ^3H thymidine was added into each well.

Compound: Cc1nnc2n1-c1ccc(Cl)cc1C(c1ccccc1)=NC2 [alprazolam]
- effect on T cell proliferation: did not have a significant effect
